Source: PubChem BioAssay (NCI)
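How tested: cells in 96-well plates exposed to compound for 48 hours at five concentrations. Definition used: TGI = concentration required for complete inhibition of growth.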

These compounds were tested on HOP-92 NSCLC (assay: growth of human tumour cells (NCI), 48 h).

SMILES | TGI
COc1cc(C2SCC(=O)N2c2ccccc2Cl)cc(OC)c1OC (configuration not stated) | > 100 µM
C=C1C(=O)OC2/C=C(\CO)C3OC3C3OC3(C)CC(OC(=O)/C(=C/C)CO)C12 (configuration not stated) | > 100 µM
COc1ccc2cc(CNCCCCCCCCCCCCNCc3ccc4cc(OC)ccc4c3)ccc2c1 | 47.5 µM
COc1cc(S(=O)(=O)Nc2nc(-c3ccc(N4C(=O)CSC4c4cccs4)cc3)cs2)ccc1Cl (configuration not stated) | > 100 µM
COc1cc(S(=O)(=O)Nc2nc(-c3ccc(N4C(=O)C(CC(=O)O)SC4c4ccccc4O)cc3)cs2)ccc1Cl (configuration not stated) | > 100 µM
N#C/C(=C\c1cn(Cc2ccccc2)c2ccccc12)c1nn(-c2ccccc2)c(N)c1C#N | 27.2 µM
COCC(N=CN1CCCc2ccccc2[C@@H]1CCCCl)C(C)(C)C (some centres not stated) | 30 µM
CNc1c2cccc(C)c2nc2c(C(=O)NCCN(C)C)cccc12 | 0.522 µM
O=C1CC(NC(=O)C(F)(F)F)c2c1csc2Br (configuration not stated) | > 100 µM
C[C@]12C[C@H](c3ccccc3)Nc3ccccc3N1C(c1ccccc1)=NO2 | > 100 µM
CC[C@](O)(CC(=O)O[C@H]1C(=O)O[C@@H]2C[C@H]3C(C)=CC(=O)[C@@H](O)[C@]3(C)[C@H]3[C@@]4(O)OC[C@]32[C@@H]1[C@@H](C)[C@H]4O)C(C)C | < 0.01 µM
O=C1CC(=O)NC(=NN2C(=O)/C(=C/C(=O)c3ccco3)N=C2c2ccccc2)N1 | > 100 µM

Each compound was assayed on HS 578T breast (assay: growth of human tumour cells (NCI), 48 h).

SMILES | TGI
COc1ccc2cc(Oc3ccc(Cl)cc3)c(=O)oc2c1 | > 100 µM
CCN(CC)c1cc2c3c(c1)CCCN3CCC2 | > 10 µM
CC(=O)O[C@H]1CC[C@H]2[C@@H]3CCC4C(C)=NNC(=O)C4[C@H]3CC[C@]12C (some centres not stated) | 64.2 µM
O=c1[nH]c(C23CC4CC(CC(C4)C2)C3)cc2c1c(=O)oc1ccccc12 | > 20.3 µM
CC1=NN(C(=O)CC(=O)Nc2ccc(C)cc2)C(=O)C1N=Nc1ccc(C(=O)O)cc1 (configuration not stated) | > 100 µM
O=C1C(=O)c2c(oc(=O)c3ccccc23)-c2ccccc21 | > 25 µM
CCOC(=O)C(C(=O)OCC)=C1NC2(c3ccccc3Nc3ccc(C)cc32)C(C#N)S1 (configuration not stated) | 46.5 µM
CN1CCC2(CC1)SC[C@H]1C(=O)N(c3ccc(Cl)cc3)C(=O)N12 | > 100 µM
CC(C)=CCC[C@@H](C)C1=C(O)C(O)C(C)=C2N=C(c3ccccc3)C(=O)OC21 (some centres not stated) | 13.4 µM
CC(C)(C)[Si](C)(C)O[C@@H](C(=O)OC1C=CCCC1)[C@@H](NC(=O)c1ccccc1)c1ccccc1 (some centres not stated) | > 100 µM
O=C(Nc1cccc2ccccc12)Nn1cnnc1 | > 100 µM
Cc1oc2c(c1C)S(=O)(=O)C(C#N)=C(c1ccccc1)N2 | > 100 µM
CCOC(=O)C1=CN/C(=C(/C)C(=O)OC)SC1C(=O)OCC (configuration not stated) | > 100 µM
Cc1ccc2c(c1)C(=O)/C(=N/Nc1ccc(Cl)cc1)CCO2 | > 100 µM
COc1cc(C2SCC(=O)N2c2ccccc2Cl)cc(OC)c1OC (configuration not stated) | > 100 µM
C=C1C(=O)OC2/C=C(\CO)C3OC3C3OC3(C)CC(OC(=O)/C(=C/C)CO)C12 (configuration not stated) | > 100 µM
COc1ccc2cc(CNCCCCCCCCCCCCNCc3ccc4cc(OC)ccc4c3)ccc2c1 | 31.7 µM
COc1cc(S(=O)(=O)Nc2nc(-c3ccc(N4C(=O)CSC4c4cccs4)cc3)cs2)ccc1Cl (configuration not stated) | > 100 µM
COc1cc(S(=O)(=O)Nc2nc(-c3ccc(N4C(=O)C(CC(=O)O)SC4c4ccccc4O)cc3)cs2)ccc1Cl (configuration not stated) | > 100 µM
N#C/C(=C\c1cn(Cc2ccccc2)c2ccccc12)c1nn(-c2ccccc2)c(N)c1C#N | > 100 µM
COCC(N=CN1CCCc2ccccc2[C@@H]1CCCCl)C(C)(C)C (some centres not stated) | 17.6 µM
CNc1c2cccc(C)c2nc2c(C(=O)NCCN(C)C)cccc12 | 0.497 µM
O=C1CC(NC(=O)C(F)(F)F)c2c1csc2Br (configuration not stated) | > 100 µM
C[C@]12C[C@H](c3ccccc3)Nc3ccccc3N1C(c1ccccc1)=NO2 | > 100 µM
CC[C@](O)(CC(=O)O[C@H]1C(=O)O[C@@H]2C[C@H]3C(C)=CC(=O)[C@@H](O)[C@]3(C)[C@H]3[C@@]4(O)OC[C@]32[C@@H]1[C@@H](C)[C@H]4O)C(C)C | < 0.01 µM
O=C1CC(=O)NC(=NN2C(=O)/C(=C/C(=O)c3ccco3)N=C2c2ccccc2)N1 | > 100 µM

The compounds below were run on M14 melanoma (assay: growth of human tumour cells (NCI), 48 h).

SMILES | TGI
COc1ccc2cc(Oc3ccc(Cl)cc3)c(=O)oc2c1 | > 100 µM
CCN(CC)c1cc2c3c(c1)CCCN3CCC2 | > 10 µM
CC(=O)O[C@H]1CC[C@H]2[C@@H]3CCC4C(C)=NNC(=O)C4[C@H]3CC[C@]12C (some centres not stated) | > 100 µM
O=c1[nH]c(C23CC4CC(CC(C4)C2)C3)cc2c1c(=O)oc1ccccc12 | 39.6 µM
CC1=NN(C(=O)CC(=O)Nc2ccc(C)cc2)C(=O)C1N=Nc1ccc(C(=O)O)cc1 (configuration not stated) | > 100 µM
O=C1C(=O)c2c(oc(=O)c3ccccc23)-c2ccccc21 | > 25 µM
CCOC(=O)C(C(=O)OCC)=C1NC2(c3ccccc3Nc3ccc(C)cc32)C(C#N)S1 (configuration not stated) | 17.6 µM
CN1CCC2(CC1)SC[C@H]1C(=O)N(c3ccc(Cl)cc3)C(=O)N12 | > 100 µM
CC(C)=CCC[C@@H](C)C1=C(O)C(O)C(C)=C2N=C(c3ccccc3)C(=O)OC21 (some centres not stated) | > 17.8 µM
O=C(Nc1cccc2ccccc12)Nn1cnnc1 | > 100 µM
Cc1oc2c(c1C)S(=O)(=O)C(C#N)=C(c1ccccc1)N2 | > 100 µM
CCOC(=O)C1=CN/C(=C(/C)C(=O)OC)SC1C(=O)OCC (configuration not stated) | > 100 µM
Cc1ccc2c(c1)C(=O)/C(=N/Nc1ccc(Cl)cc1)CCO2 | > 100 µM
COc1cc(C2SCC(=O)N2c2ccccc2Cl)cc(OC)c1OC (configuration not stated) | > 100 µM
C=C1C(=O)OC2/C=C(\CO)C3OC3C3OC3(C)CC(OC(=O)/C(=C/C)CO)C12 (configuration not stated) | > 100 µM
COc1ccc2cc(CNCCCCCCCCCCCCNCc3ccc4cc(OC)ccc4c3)ccc2c1 | 35.9 µM
COc1cc(S(=O)(=O)Nc2nc(-c3ccc(N4C(=O)CSC4c4cccs4)cc3)cs2)ccc1Cl (configuration not stated) | > 100 µM
COc1cc(S(=O)(=O)Nc2nc(-c3ccc(N4C(=O)C(CC(=O)O)SC4c4ccccc4O)cc3)cs2)ccc1Cl (configuration not stated) | > 100 µM
N#C/C(=C\c1cn(Cc2ccccc2)c2ccccc12)c1nn(-c2ccccc2)c(N)c1C#N | 46.1 µM
